One molecule from BindingDB's records for doi:10.1016/s0960-894x(00)00248-1 (University of Munich, 2000) can be followed below.

Broadly, the IC50 is the concentration that gives 50% inhibition. Read a low IC50 as greater potency in that assay.

This test has as its target Beta-lactamase TEM (Escherichia coli, UniProt P62593). In words: ChEBML_39213. As for the experimental part:
Beta-Lactamase inhibition activity after 15 min of pre-incubation with the enzyme isolated from Escherichia coli 205 TEM

Chain of Beta-lactamase TEM (P62593 whole entry): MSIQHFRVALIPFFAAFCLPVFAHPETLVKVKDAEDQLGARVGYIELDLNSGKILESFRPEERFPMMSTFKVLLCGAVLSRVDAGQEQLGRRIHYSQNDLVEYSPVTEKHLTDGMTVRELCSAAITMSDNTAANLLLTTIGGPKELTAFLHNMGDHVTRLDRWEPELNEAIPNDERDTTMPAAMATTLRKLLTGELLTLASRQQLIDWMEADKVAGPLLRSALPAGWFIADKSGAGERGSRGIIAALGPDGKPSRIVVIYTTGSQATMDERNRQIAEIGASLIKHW

In the case of `COC1=C(C(=O)O)N2C(=O)[C@H]([C@@H](C)O)[C@H]2C1` [Potassium; (5R,6S)-6-((R)-1-hydroxy-ethyl)-3-methoxy-7-oxo-1-aza-bicyclo[3.2.0]hept-2-ene-2-carboxylate], half-maximal inhibition (IC50) required 340 µM.
